{"source": "patent US20090234150A1", "about": "“Use of ppar-alpha agonists to treat skeletal muscle wasting disorders” (priority 2006, published 2009)", "test_system": "ischemic muscle necrosis", "settings": "wild type mice, 0.5 g/kg/day by gavage for 10 days prior to femoral artery ligation", "excerpt": "To assess the muscle protective effect of the PPAR-alpha agonist fenofibrate, wild type mice received fenofibrate (0.5 g/kg/day; Cayman Chemical, Ann Arbor, Mich., USA) by gavage, or vehicle alone for 10 days prior to femoral artery ligation. Two days after femoral artery ligation muscle necrosis was subsequently analyzed on histological sections of the crural muscles.\nLimb ischemia was induced by high unilateral right or bilateral ligation of the femoral artery and vein, and of the cutaneous vessels branching from the caudal femoral artery, sparing the femoral nerve. Crural muscles were dissected and processed for histological analysis 2 d or 7 d after ligation.\nThe crural muscles were dissected, fixed in 4% PFA, dehydrated, embedded in paraffin, and sectioned at 10 μm thickness. Microscopic analysis was performed with a Zeiss Axioplan 2 imaging microscope, equipped with an Axiocam HrC camera and KS300 morphometry software (Zeiss). Capillary density, fiber size, and the cross-sectional area of viable and necrotic zones were quantified on eight entire sections (each 320 μm apart) of the crural muscles.", "data": [{"compound": "CC(C)OC(=O)C(C)(C)Oc1ccc(C(=O)c2ccc(Cl)cc2)cc1", "note": "[fenofibrate]", "values": [{"measurement": "prevention of ischemic muscle necrosis", "setting": "analysed two days after ligation, versus vehicle", "value": 60, "unit": "%"}, {"measurement": "% necrotic area/total cross-sectional area", "setting": "crural muscles two days after ligation, n=4, P=0.002 (vehicle 86.3±8.2%)", "value": "34.3±7", "unit": "%"}]}]}
